Measured values reported in US20110171192A1, “SUBSTITUTED AMINE DERIVATIVE AND MEDICINAL COMPOSITION COMPRISING SAME AS THE ACTIVE INGREDIENT” (priority 2008, published 2011).

Key:
[1] = Stability of nucleic acid transporter inhibitor in solution (acetate buffer pH 3, HPLC); assay type: physicochemical; details: for residual ratio of the compound (%): acetate buffer pH 3, 10^−5 M, 25 °C, 20 hours after
Protocol: Stability of Nucleic Acid Transporter Inhibitor in Solution
0.02 mL of comparative compound or compound (1) methanol solution at the concentration of 10^−3 M was added to the 1.98 mL of acetate buffer, pH 3 (final concentration of 10^−5 M). The solutions were incubated at 25 °C, and the reaction solutions were collected at 2, 4 and 20 hours later. Each obtained 0.5 mL of reaction solutions were neutralized and adjusted to 1 mL, and 0.01 mL of 10^−3 M methanol solutions of 4-hydroxy were spiked as internal standard substrate. The solutions were measured by HPLC according to the measurement condition shown as follows, and the ratio (IS ratio) compared the amount of internal standard substrate with the amount of compounds was calculated. The remaining rate of test compounds were obtained to compare the IS ratio with IS ratio of pre-incubation according to the method described above.
HPLC Analytical Condition • column: Inertsil ODS-2 (φ4.6×150 mm) • Mobile phase: 20 mM phosphate buffer (pH 6)/CH3CN=7/3 (w/w) • Detection absorbance: 250 nm • Flow rate: 1 mL/min • Injection volume: 0.02 mL • Time span of measurement: 20 min

absorption of adenosine = assay: Inhibition of absorption of orally given [3H]-adenosine in rats (serum radioactivity); assay type: in vivo; details: male SD rats, oral; for ED50: Rattus norvegicus, 50% inhibitory dose on absorption of adenosine, from regression line; for ED50 value (in words): inhibition on absorption of adenosine
Protocol: Four weeks old male SD rats (Charles river japan corporation) were purchased and the animals over 1 weeks quarantine were used. Body weight of the rats fasted 24 hours from last day were measured and grouped used grouping soft (Stat light #11, Yukums corporation). Test compound and [^3H]-adenosine solution (4 μCi/mL) were given orally at the volume of 2 mL/kg, and about 500 μL of blood were obtained from retro orbital vein. The blood was centrifuged at 3000 rpm for 10 min, and 13 μL of H2O2 solution were added to the 100 μL of resulted serum and placed for 10 min. And 5 mL of liquid scintilation cocktail added and mixed enough, and radio activity was measured using liquid scintillation counter. Inhibitory rate was calculated according to the formula described as follow, and the regression line was obtained from inhibitory rate and its log dose. The 50% inhibitory dose of the compound (ED50) at the inhibition on absorption of adenosine was calculated used regression line formula The results were shown in Table 2.
Inhibitory ratio={1−radio activity of the serum obtained from rats treated with test compound (dpm)/radio activity of the serum obtained from rats treated with vehicle (dpm)}×100

human CNT2 = target: T1, human CNT2 (Homo sapiens, UniProt O43868); assay: Inhibitory activity against uptake of adenosine through human CNT2; assay type: cell-based; details: human CNT2 transiently expressing cells, 14C-adenosine 10 μM, 30 minutes at 37° C., NBMPR 10 μM
T1 construct: expressed in transfected cells
T1 sequence (O43868 1-658): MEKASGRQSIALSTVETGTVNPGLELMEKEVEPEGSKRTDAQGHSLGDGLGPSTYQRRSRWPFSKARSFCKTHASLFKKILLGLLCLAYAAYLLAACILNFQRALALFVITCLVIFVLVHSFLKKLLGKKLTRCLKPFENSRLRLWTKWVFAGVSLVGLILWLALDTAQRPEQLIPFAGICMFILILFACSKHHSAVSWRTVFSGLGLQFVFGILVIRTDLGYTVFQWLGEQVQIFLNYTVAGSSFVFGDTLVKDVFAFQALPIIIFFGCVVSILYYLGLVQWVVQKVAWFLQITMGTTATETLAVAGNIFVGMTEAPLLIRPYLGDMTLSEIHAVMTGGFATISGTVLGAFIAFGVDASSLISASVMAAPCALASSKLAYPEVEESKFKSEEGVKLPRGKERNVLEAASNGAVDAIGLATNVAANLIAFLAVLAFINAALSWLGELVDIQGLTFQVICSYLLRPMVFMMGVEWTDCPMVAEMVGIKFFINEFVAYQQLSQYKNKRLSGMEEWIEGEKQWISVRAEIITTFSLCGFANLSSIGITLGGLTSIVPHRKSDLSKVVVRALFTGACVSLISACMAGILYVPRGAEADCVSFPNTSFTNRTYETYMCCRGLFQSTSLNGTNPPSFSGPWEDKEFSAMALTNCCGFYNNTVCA
Protocol: Measurement of Inhibitory Activity Against Uptake of Adenosine Through Human CNT2
An Uptake buffer was prepared by addition of a mixture of non-radioisotope labeled (Sigma) and ^14C-labeled (GE Healthcare) adenosine at the final concentration of 10 μM into a buffer, pH 7.4, containing 140 mM sodium chloride, 2 mM potassium chloride, 1 mM calcium chloride, 1 mM magnesium chloride, 10 mM HEPES
2-[4-(2-hydroxyethyl)-1-piperazinyl]thane sulfonic acid, 5 mM tris(hydroxymethyl)aminomethane and 5 mM glucose. For measurement of basal uptake, Basal uptake measurement buffer, which contained 140 mM choline chloride instead of sodium chloride was prepared. In uptake assays, NBMPR was added to Uptake buffer and Basal uptake measurement buffer at the final concentration of 10 μM. In the case of measurement of inhibitory activity of test compounds, test compounds were dissolved in dimethyl sulfoxide, and then appropriately diluted with Uptake buffer as to Measurement buffers. After removing culture medium of human CNT2 transiently expressing cells, Pretreatment buffer (Basal uptake measurement buffer without adenosine and glucose) was added to wells at 500 μL/well and incubated at 37° C. for 10 minutes. After repeating the same step again, Pretreatment buffer was removed and Measurement buffers and Basal uptake measurement buffer were added at 300 μL/well and incubated at 37° C. After incubation for 30 minutes, Measurement buffers and Basal uptake measurement buffer were removed, and the cells were washed with Washing buffer (Basal uptake measurement buffer with non-radioisotope labeled adenosine at 10 μM) at 500 μL/well twice. The cells were solubilized with 0.5 mol/L sodium hydroxide at 200 μL/well, and the cell lysates were transferred into glass vials at 100 μL. After mixing with 5 mL of ACS-II (GE Healthcare Bioscience), radioactivity was measured by means of scintillation counter (Aloka). One hundred % was set to the difference between the uptake in the control group and the basal uptake, and the uptake of adenosine at each test compound concentration was calculated. The test compound concentration inhibiting 50% uptake of adenosine (IC50 value) was calculated using regression line. […] The IC50 value was expressed as A; 1˜10 nM, B; 10˜100 nM or not less than 100 nM;

Structure (SMILES) | residual ratio of the compound (%) [1] [%] | ED50 (absorption of adenosine) [mg/kg] | ED50 value (in words) (absorption of adenosine) | Stability in pH3 solution (in words) ([1]; pH3 solution, versus comparative compound) | IC50 (human CNT2) [µM]
N#Cc1c(NCc2ccc(-c3ccccc3)cc2)n(C2O[C@H](CO)[C@@H](O)[C@H]2O)c2ncnc(N)c12 (stereo partly drawn) [Comparative compound, reference compound] | 45.0 |  |  |  | 
C[C@@]1(O)[C@H](O)[C@@H](CO)O[C@H]1n1c(NCc2ccc(-c3ccccc3)cc2)c(C#N)c2c(N)ncnc21 [Compound (1), 4-Amino-6-[(biphenyl-4-ylmethyl)-amino]-7-(3,4-dihydroxy-5-hydroxymethyl-3-methyl-tetrahydro-furan-2-yl)-7H-pyrrolo[2,3-d]pyrimidine-5-carbonitrile] | 85.0 | 1.3 | high ED50 value | better than that of comparative compound | ≥ 0.1
CCOC(=O)CCCCOc1cc(CNc2c(C#N)c3c(N)ncnc3n2C2O[C@H](CO)[C@@H](O)[C@@]2(C)O)ccc1-c1ccccc1 (stereo partly drawn) [Compound (2), 5-(4-{[4-Amino-5-cyano-7-(3,4-dihydroxy-5-hydroxymethyl-3-methyl-tetrahydrofuran-2-yl)-7H-pyrrolo[2,3-d]pyrimidin-6-ylamino]-methyl}-biphenyl-2-yloxy)-pentanoic acid ethyl ester] |  | 1.4 | high ED50 value |  | 0.01 to 0.1
C[C@]1(O)C(n2c(NCc3ccc(-c4ccccc4)c(OCCCCCl)c3)c(C#N)c3c(N)ncnc32)O[C@H](CO)[C@H]1O (stereo partly drawn) [Compound (3), 4-Amino-6-{[2-(4-chloro-butoxy)-biphenyl-4-ylmethyl]-amino}-7-(3,4-dihydroxy-5-hydroxymethyl-3-methyl-tetrahydro-furan-2-yl)-7H-pyrrolo[2,3-d]pyrimidine-5-carbonitrile] |  | 1.1 | high ED50 value |  | 0.01 to 0.1
C[C@]1(O)C(n2c(NCc3ccc(-c4ccccc4)c(OCCCCN4CCOCC4)c3)c(C#N)c3c(N)ncnc32)O[C@H](CO)[C@H]1O (stereo partly drawn) [Compound (4), 4-Amino-7-(3,4-dihydroxy-5-hydroxymethyl-3-methyl-tetrahydro-furan-2-yl)-6-{[2-(4-morpholin-4-yl-butoxy)-biphenyl-4-ylmethyl]-amino}-7H-pyrrolo[2,3-d]pyrimidine-5-carbonitrile] |  | 0.51 | high ED50 value |  | 0.01 to 0.1
CC(C)(C)[Si](C)(C)OCCCCOc1cc(CNc2c(C#N)c3c(N)ncnc3n2C2O[C@H](CO)[C@@H](O)[C@@]2(C)O)ccc1-c1ccccc1 (stereo partly drawn) [Compound (5), 4-Amino-6-({2-[4-(tert-butyl-dimethyl-silanyloxy)-butoxy]-biphenyl-4-ylmeth-yl}-amino)-7-(3,4-dihydroxy-5-hydroxymethyl-3-methyl-tetrahydro-furan-2-yl)-7H-pyrrolo[2,3-d]pyrimidine-5-carbonitrile] |  |  |  |  | ≥ 0.1
C[C@]1(O)C(n2c(NCc3ccc(-c4ccccc4)c(OCCCCN4CCCCC4)c3)c(C#N)c3c(N)ncnc32)O[C@H](CO)[C@H]1O (stereo partly drawn) [Compound (6), 4-Amino-7-(3,4-dihydroxy-5-hydroxymethyl-3-methyl-tetrahydro-furan-2-yl)-6-{[2-(4-piperidin-1-yl-butoxy)-biphenyl-4-ylmethyl]-amino}-7H-pyrrolo[2,3-d]pyrimidine-5-carbonitrile] |  |  |  |  | 0.01 to 0.1
CN(C)C(=O)CCCCOc1cc(CNc2c(C#N)c3c(N)ncnc3n2C2O[C@H](CO)[C@@H](O)[C@@]2(C)O)ccc1-c1ccccc1 (stereo partly drawn) [Compound (7), 5-(4-{[4-Amino-5-cyano-7-(3,4-dihydroxy-5-hydroxymethyl-3-methyltetrahydrofuran-2-yl)-7H-pyrrolo[2,3-d]pyrimidin-6-ylamino]-methyl}-biphenyl-2-yloxy)-pentanoic acid dimethylamide] |  | 3 | high ED50 value |  | 0.001 to 0.01
C[C@]1(O)C(n2c(NCc3ccc(-c4ccccc4)c(OCCCCO)c3)c(C#N)c3c(N)ncnc32)O[C@H](CO)[C@H]1O (stereo partly drawn) [Compound (8), 4-Amino-7-(3,4-dihydroxy-5-hydroxymethyl-3-methyl-tetrahydro-furan-2-yl)-6-{[2-(4-hydroxy-butoxy)-biphenyl-4-ylmethyl]-amino}-7H-pyrrolo[2,3-d]pyrimidine-5-carbonitrile] |  | 0.78 | high ED50 value |  | 0.001 to 0.01
CCOC(=O)CCCCOc1cc(CNc2c(C#N)c3c(O)ncnc3n2C2O[C@H](CO)[C@@H](O)[C@@]2(C)O)ccc1-c1ccccc1 (stereo partly drawn) [Compound (9), 5-(4-{[5-Cyano-7-(3,4-dihydroxy-5-hydroxymethyl-3-methyltetrahydro-furan-2-yl)-4-hydroxy-7H-pyrrolo[2,3-d]pyrimidin-6-ylamino]methyl}-biphenyl-2-yloxy)-pentanoic acid ethyl ester] |  |  |  |  | ≥ 0.1
